Laboratory results as given in US20060040944A1, “5-Aza-7-deazapurine derivatives for treating Flaviviridae” (priority 2004, published 2006).
Like-named read-outs stand apart in the source and are kept apart here.

Legend:
in vitro [1] = details: hamster
[2] = Cytotoxicity assay (CC50), West Nile column
West Nile = test: Antiviral activity against West Nile virus (Table 2); details: read-out: West Nile EC50
Yellow Fever = test: microbe, parasite or virus in culture; assay type: cell-based, Yellow fever virus, vaccine strain 17D (YFV-17D)
BVDV = test: microbe, parasite or virus in culture; assay type: cell-based; details: Bovine viral diarrhea virus isolates and strains, MDBK, read-out: BVDV EC50
DENV-2 = test: Antiviral activity against DENV-2 (Table 2)
MT-4 = MT-4 cell test (Table 2); assay type: cell-based; details: MT-4 cells, no virus named
[3] = Cytotoxicity assay (CC50), DENV-2 column
in vitro [4] = details: cattle (Bos taurus)
[5] = test system: host cells of the West Nile test (not named); test: Cytotoxicity assay (CC50), West Nile column; details: read-out: West Nile CC50; concentration reducing cell number by 50%; cell line not named
[6] = test system: host cells of the DENV-2 test (not named); test: Cytotoxicity assay (CC50), DENV-2 column; details: read-out: DENV-2 CC50; concentration reducing cell number by 50%; cell line not named

SMILES | CC50 (in vitro [1]) | CC50 at 4 days [2] | EC50 (West Nile) | EC50 (Yellow Fever; Yellow fever virus, BHK-21, read-out: Yellow Fever EC50) | EC50 (BVDV) | EC50 (DENV-2; Dengue virus, DENV2, read-out: DENV-2 EC50) | EC50 (MT-4; Homo sapiens, MT4) | CC50 at 4 days [3] | CC50 (in vitro [4]) | CC50 (BHK-21 cells) | CC50 [5] | EC50 (Yellow Fever; read-out: Yellow Fever EC50) | EC50 (DENV-2; read-out: DENV-2 EC50, DENV-2) | EC50 (MT-4) | CC50 [6] | CC50 (BT cells)
Nc1nc(=O)n2ccn([C@@H]3O[C@H](CO)[C@@H](O)[C@H]3O)c2n1 [2-amino-8-(β-D-ribo-furanosyl)-imidazo[1,2-a]-s-triazin-4-one] | > 100 µM | > 100 µM | > 100 µM | > 100 µM | 31 µM | > 100 µM | > 100 µM | > 100 µM | > 100 µM | – | – | – | – | – | – | –
Nc1nc(=O)n2ccn([C@H]3C[C@H](O)[C@@H](CO)O3)c2n1 [2-amino-8-(β-D-2-deoxyribo-furanosyl)-imidazo[1,2-a]-s-triazin-4-one] | – | – | > 100 µM | – | – | – | – | – | – | > 100 µM | > 100 µM | > 100 µM | > 100 µM | > 100 µM | > 100 µM | > 100 µM
